Read-outs that look alike come from different tables or passages of the source.

A short description of series [1]: Phase 1 crossover pharmacokinetics after a single oral 20 mg dose of tablet and capsule formulations. Type of series: in vivo, human. Here is the method: Certain formulations provided herein were evaluated in a Phase 1, open-label, randomized, crossover study.
On Day 1 of Period 1, following an overnight fast of at least 8 hours, subjects were randomized to one of the following 3 sequences to receive Treatment A, B or C (Table 35).
In Treatment A, one 20-mg reference Compound A API-in-capsule was administered orally after at least 8 hour fast with 240 mL of non-carbonated, room temperature water. In Treatment B, one 20-mg tablet of Compound A (Tablet Formulation XIII) was administered under fasted conditions. In Treatment C, four 5-mg tablets of Compound A (Tablet Formulation XIV) were administered under fasted conditions. The 20-mg tablet and four 5-mg tablets were administered orally after at least 8 hour fast with 240 mL of non-carbonated, room temperature water.
For each period, serial blood samples were collected before dosing (zero hour) and at 0.5, 1, 1.5, 2, 2.5, 3, 4, 6, 8, 12, 24, 48, 72, and 96 hours after dosing. Plasma concentrations of Compound A were determined for determining PK parameters, such as AUC0-t, AUC0-∞, Cmax, Tmax, t1/2, CL/F, and Vz/F for Compound A. Plasma PK parameters were calculated using non compartmental methods. Analyses of variance (ANOVA) were performed on the natural log-transformed AUC0-t, AUC0-∞, and Cmax for Compound A. The geometric mean ratios (test/reference) and their 90% confidence intervals were also calculated. For Tmax, non parametric analysis was used to produce median differences.

Series [2] in a line: Phase 1 food effect study (Part 2), single 20-mg oral dose of Compound A tablet, fed vs fasted. Type of series: in vivo, human. Here is the method: The primary objectives of this study are: to characterize the biotransformation and excretion of Compound A following a single 20 mg oral dose of Compound A capsule containing a microtracer of [^14C]-Compound A solution in healthy male subjects (Part 1) and to evaluate the effect of a high-fat meal on the pharmacokinetics (PK) of Compound A following a single oral 20-mg dose of Compound A tablet (Part 2).
Part 2 design: Part 2 will be a 2-period crossover study; in Period 1, subjects (n=12) will be randomized to receive either an oral 20 mg dose of Compound A tablet (Treatment B) under fed (n=6) or fasted (n=6) conditions. In Period 2, subjects will receive Treatment B under converse conditions based on treatment assignment in Period 1. After screening, subjects (n=12) eligible for participation in the study will return to the study center on Day −1 for baseline assessments. Subjects who continue to be qualified for participation in the study will be randomized and enrolled in the study on the morning of Day 1. Subjects (n=6) will be enrolled and randomized to receive Treatment B under fed or fasted conditions on the morning of Day 1 after fasting for at least 8 hours. Fed subjects will be served a standard high fat meal breakfast, or its equivalent, that must be consumed within 30 minutes from serving. Dosing must occur 30 minutes (±5 minutes) after serving a subject breakfast. All subjects (fed and fasted) will fast (not to consume any food) until 4 hours post dose. Water will be allowed during the fasting period. Subjects will be domiciled at the study center from Day −1 until the morning of Day 5 of each period. Subjects will be discharged from the study center on the morning of Day 5 upon satisfactory safety review and completion of study-related procedures. Safety and tolerability data will be monitored and collected following each dosing period. Periods 1 and 2 will be separated by a washout period of at least 7 days (no more than 10 days) from prior dose to the next dose. In certain instances, a longer washout may be acceptable if previously agreed to.
Serial blood samples (10 mL) will be collected at predose (0 hour) and at 0.5, 1, 2, 3, 6, 12, 24, 48, 72 and 96 hours post dose for the determination of plasma concentrations of Compound A and the O-desmethyl metabolite of Compound A. Safety will be monitored throughout the study; safety evaluations will include AE reporting, physical examinations, vital sign measurements, ECG, and clinical laboratory safety tests. Concomitant medications will be assessed and recorded throughout the study as well. In addition, during the subjects' stay-in-the clinic (i.e., confinement period), fasting plasma glucose levels will be monitored as part of the clinical laboratory safety tests. For Parts 1 and 2, all subjects will return to the clinic within 7 to 10 days after the last dose for follow up safety assessments. In the event that a subject discontinues prematurely from the study, every reasonable effort should be made (and documented) to ensure that all procedures and evaluations scheduled for the follow-up visit are performed at the time of discontinuation or a follow-up visit should be scheduled within 7 to 10 days from the discontinuation day.
Part 2 dosing: In Part 2, subjects will fast overnight for at least 8 hours prior to Compound A administration. On the morning of Day 1, each subject will receive a 20-mg tablet of Compound A orally. Subjects randomized to receive Compound A under fed conditions will be a served a standard high fat meal (breakfast).
The standard high fat meal or its equivalent must be consumed within 30 minutes of serving. Dosing must occur 30 minutes (±5 minutes) after serving the meal. The tablet will be administered with approximately 240 mL of non-carbonated, room temperature water. After dosing, subjects will continue to fast until 4 hours after dosing.

A short description of series [3]: Susceptibility of Compound A to hydrolysis. In kind it is physicochemical.
Series [4] in a line: Hygroscopicity by moisture adsorption/desorption (DVS). In kind it is physicochemical. As to the method:
Sorption isotherms were obtained using a SMS DVS Intrinsic moisture sorption analyser, controlled by DVS Intrinsic Control software v1.0.0.30. The sample temperature was maintained at 25° C. by the instrument controls. The humidity was controlled by mixing streams of dry and wet nitrogen, with a total flow rate of 200 mL/min. The relative humidity was measured by a calibrated Rotronic probe (dynamic range of 1.0-100% RH), located near the sample. The weight change, (mass relaxation) of the sample as a function of % RH was constantly monitored by the microbalance (accuracy±0.005 mg). Typically 5-20 mg of sample was placed in a tared mesh stainless steel basket under ambient conditions. The sample was loaded and unloaded at 40% RH and 25° C. (typical room conditions). The standard isotherm was performed at 25° C. at 10% RH intervals over a 0-90% RH range. Data analysis was undertaken in Microsoft Excel using DVS Analysis Suite v6.0.0.7.
Hygroscopicity of Form A was determined by moisture adsorption and desorption.

The nature of series [5]: Pharmacokinetics of metabolite after 7.5-60 mg Compound A (protocol of U.S. provisional 61/653,436). Type of series: in vivo, human. Conditions: for concentration at 15 day: human, in vivo, read-out: Ctrough. As to the method:
In certain embodiments, the pharmacokinetic parameters in connection with the metabolite of Compound A produced via administration of 7.5 mg, 15 mg, 30 mg, 45 mg and 60 mg of Compound A are obtained using the protocol set forth in Section 5.2.1 (paragraphs [00497]-[00520]) of U.S. provisional application No. 61/653,436, filed May 31, 2012, which is incorporated by reference herein in its entirety.
In certain embodiments, the pharmacokinetic parameters set forth herein are mean values obtained from multiple subjects.

Setting [6] is: fed vs fasted, 20 mg Compound A tablet, healthy adult males.
Setting [7] is: plasma, single 20-mg oral dose of Compound A tablet, Fasted (n = 11).
[8] abbreviates: plasma, single 20-mg oral dose of Compound A tablet, Fed, high fat meal (n = 11).
Where [9] appears, read: day 1 of administration of about 45 mg of Compound A.
Setting [10] is: day 1 of administration of about 60 mg of Compound A.
Setting [11] is: upon administration of about 45 mg of Compound A.

As for `CO[C@H]1CC[C@H](N2C(=O)CNc3ncc(-c4ccc(C(C)(C)O)nc4)nc32)CC1` [Compound A, 7-(6-(2-hydroxypropan-2-yl)pyridin-3-yl)-1-((trans)-4-methoxycyclohexyl)-3,4-dihydropyrazino[2,3-b]pyrazin-2(1H)-one], the “CL/F (L/h), geometric mean (geometric CV %)” value in series [1] (plasma, single 20 mg oral dose of Compound A, fasted healthy adult males, Treatment A = API-in-capsule, B = one 20-mg tablet, C = four 5-mg tablets (analyte Compound A)) was 20.3 (23) L/h. Further, the “pharmacokinetics of tablet formulations versus API in capsule” value in series [1] (single dose 20 mg, healthy adult male subjects) is recorded as “comparable”. Further, in series [2] (setting [6]), the “decrease in Cmax with a high fat meal” value was roughly 17%, the “delay in Tmax with a high fat meal” value was 2 h and the “increase in overall exposure (AUCinf) with a high fat meal” value was roughly 20%. The “CL/F (L/h), geometric mean (CV %)” value in series [2] (setting [7]) is 19.9 (38) L/h. Also, the “CL/F (L/h), geometric mean (CV %)” value in series [2] (setting [8]) is given as 16.7 (38) L/h. The susceptibility to hydrolysis entry in series [3] is “susceptible to hydrolysis”.
As to `CO[C@H]1CC[C@H](N2C(=O)CNc3ncc(-c4ccc(C(C)(C)O)nc4)nc32)CC1` [Form A, 7-(6-(2-hydroxypropan-2-yl)pyridin-3-yl)-1-((trans)-4-methoxycyclohexyl)-3,4-dihydropyrazino[2,3-b]pyrazin-2(1H)-one], in series [4] (DVS cycle, 25° C.), the “XRPD diffractogram after full adsorption/desorption cycle” value is “unchanged from the initial Form A”. For the same molecule, the hygroscopicity entry in series [4] (DVS moisture sorption/desorption) was “not hygroscopic”. In series [4] (DVS, 25° C., between 0 and 80% relative humidity), this molecule gave a water uptake of less than 0.1 % w/w.
Consider `CC(C)(O)c1ccc(-c2cnc3c(n2)N([C@H]2CC[C@H](O)CC2)C(=O)CN3)cn1` [O-Desmethyl metabolite, 1-((trans)-4-hydroxycyclohexyl)-7-(6-(2-hydroxypropan-2-yl)pyridin-3-yl)-3,4-dihydropyrazino[2,3-b]pyrazin-2(1H)-one], for which the Tax is 3 h in series [1] (metabolite, upon administration of about 20 mg of Compound A (protocol of Section 6.5.1)); 3 h in series [5] (setting [9]); 5 h in series [5] (setting [10]); 2 h in series [5] (day 15 of once a day administration of about 30 mg of Compound A); 2 h in series [5] (day 15 of once a day administration of about 45 mg of Compound A); 3 h in series [5] (day 15 of once a day administration of about 60 mg of Compound A). For the same molecule, in series [5] (setting [11]), the Tax was determined as 3 h. The tin in series [5] (day 1 of administration of about 30 mg of Compound A) came to 21 h; in series [5] (setting [9]), 17 h; in series [5] (setting [10]), 16 h. In addition, the concentration at 15 day in series [5] (day 15 of once a day administration of about 7.5 mg of Compound A) turned out to be 267 ng/mL; in series [5] (day 15 of once a day administration of about 15 mg of Compound A), 145 ng/mL. Moreover, the t1/2 in series [5] (setting [11]) turned out to be 14.7 h. Also, the “decrease in Cmax with a high fat meal” value in series [2] (setting [6]) is recorded as roughly 17%. Further, in series [2] (setting [6]), the “increase in overall exposure (AUCinf) with a high fat meal” value is roughly 3%. Also, the results for the “CL/F (L/h), geometric mean (CV %)” value in series [2] (setting [7]) and in series [2] (setting [8]) were 2.0 (38) L/h and 2.0 (36) L/h, respectively. In addition, in series [2] (setting [8]), the “t1/2 (h), geometric mean (CV %)” value is on record as 14.9 (29) h.

(Values after patent publication US10052323B2, “Pharmaceutical compositions of 7-(6-(2-hydroxypropan-2-yl)pyridin-3-yl)-1-(trans)-4-methoxycyclohexyl)-3,4-dihydropyrazino [2,3-b]pyrazin-2(1H)-one, a solid form thereof and methods of their use” (Signal Pharmaceuticals, LLC, priority 2013, dated 2018).)
